# PubChem BioAssay AID732 (Emory University Molecular Libraries Screening Center, 2007)
# Where “and” joins values, the source holds several entries; their conditions need not be identical. Equal entries are not always repeated. Calls of active or inactive are those of the source. No rule for the calls is given here.
# System: in vivo angiogenesis, blood vessel count
# Test: angiogenesis inhibition in living animals, in vivo study, HTS (AID 732);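 also: zebrafish embryos dosed at one day post fertilization; 0% = reference inhibitor and 100% = plate mean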
# Conditions: active compounds read low;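 tested at 30 µM in the well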
row,SMILES,vessel count % control
1,CN1C2CCC1CC(OC(=O)c1cc(Cl)cc(Cl)c1)C2 (centres undefined),77% (inactive)
2,CN1Cc2c(N)cccc2C(c2ccccc2)C1 (centres undefined),112% (inactive)
3,CC(=O)CCCCn1c(=O)c2c(ncn2C)n(C)c1=O,109% (inactive)
4,CN1CCN(CC/C=C2/c3ccccc3Sc3ccc(S(=O)(=O)N(C)C)cc32)CC1,98.3% (inactive)
5,CNCCC=C1c2ccccc2CCc2ccccc21,103% (inactive)
6,CCn1ccnc1CC1COc2ccccc2O1 (centres undefined),100% (inactive)
7,OC(CN1CCN(c2cccc(Cl)c2)CC1)C(c1ccccc1)c1ccccc1 (centres undefined),67.8% (inactive)
8,O=C(O)C1CCCN(CCC=C(c2ccccc2)c2ccccc2)C1 (centres undefined),88.5% (inactive)
9,N[C@@H](Cc1ccc(O)c(I)c1)C(=O)O,108% (inactive)
10,O=C1NCN(c2ccccc2)C12CCN(CC1COc3ccccc3O1)CC2 (centres undefined),94.6% (inactive)
11,CCCNC[C@H](O)COc1ccccc1C(=O)CCc1ccccc1,93.1% (inactive)
12,CC(C)N(CCC(C(N)=O)(c1ccccc1)c1ccccn1)C(C)C (centres undefined),99.1% (inactive) and 109% (inactive)
13,CCCN(CCC)CCc1ccc(O)c(O)c1,86.9% (inactive)
14,Cc1ccc(S(=O)(=O)NC(=O)NN2CCCCCC2)cc1,102% (inactive)
15,CC(=O)c1ccc(S(=O)(=O)NC(=O)NC2CCCCC2)cc1,84.8% (inactive)
16,CCCn1c(=O)c2[nH]c(-c3ccc(OCC(=O)NCCN)cc3)nc2n(CCC)c1=O,99.8% (inactive)
17,CCCN(CCC)CCc1c[nH]c2ccc(C(N)=O)cc12,80.1% (inactive)
18,CCC(CO)Nc1nc(NCc2ccccc2)c2ncn(C(C)C)c2n1 (centres undefined),82.5% (inactive)
19,CC(=O)NCCc1c[nH]c2ccc(O)cc12,101% (inactive)
20,CC(C)COCC(CN(Cc1ccccc1)c1ccccc1)N1CCCC1 (centres undefined),104% (inactive)
21,O=c1c(O)c(-c2cc(O)c(O)c(O)c2)oc2cc(O)cc(O)c12,87.9% (inactive)
22,Nc1nc(SCc2ccc([N+](=O)[O-])cc2)c2ncn([C@@H]3O[C@H](CO)[C@H](O)C3O)c2n1 (some centres undefined),112% (inactive)
23,COc1cc(CC(C)N)c(OC)cc1I (centres undefined),79.5% (inactive)
24,CN(C)c1nc(N(C)C)nc(N(C)C)n1,86% (inactive)

row,SMILES,vessel count % control
1,S=C(NC1CCCCC1)N1CCC(c2cnc[nH]2)CC1,129% (inactive)
2,CC#C[C@]1(O)CC[C@H]2[C@@H]3CCC4=CC(=O)CCC4=C3[C@@H](c3ccc(N(C)C)cc3)C[C@@]21C,106% (inactive)
3,CNC1(C)C2CCC(C2)C1(C)C (centres undefined),107% (inactive)
4,COc1ccccc1N1CCN(CCCCNC(=O)c2ccc3ccccc3c2)CC1,52% (inactive)
5,CC(/C=C/c1cccc(Oc2ccc(F)cc2)c1)N(O)C(N)=O (centres undefined),100% (inactive)
6,Cc1cccc(/C=C/c2ccccc2)n1,74.2% (inactive)
7,CC[N+](CC)(CC)CC,112% (inactive)
8,CCCCCCCCCCCCCCCCCCOC[C@H](COP(=O)([O-])OCC[N+](C)(C)C)OC,97.5% (inactive)
9,CCCC(=O)NCCc1c2n(c3ccc(OC)cc13)Cc1ccccc1-2,111% (inactive)
10,C[C@H]1O[C@@H](n2cc(F)c(=O)[nH]c2=O)[C@H](O)[C@@H]1O,108% (inactive)
11,CCCCCCCC/C=C\CCCCCCCC(=O)NCCO,102% (inactive)
12,C[C@@H](NCCc1ccc(O)cc1)[C@@H](O)c1ccc(O)cc1,92.9% (inactive)
13,OC[C@H]1O[C@@H](n2cnc3cncnc32)[C@H](O)[C@@H]1O,82.1% (inactive)
14,CCN(CC)C(=S)SSC(=S)N(CC)CC,0% (inactive)
15,O=C(O)CC[N+](=O)[O-],87.6% (inactive)
16,CC(=O)O[C@H]1CC2(C)[C@@H](C[C@@H](O)[C@H]3[C@@]4(C)CC[C@@H](O)[C@@H](C)[C@@H]4CC[C@@]32C)C1=C(CCC=C(C)C)C(=O)O (some centres undefined),100% (inactive)
17,CN(C)C(N)=NCCC[C@H](N)C(=O)O,93.3% (inactive)
18,CN=c1nc(-c2ccccc2)n(-c2ccccc2)s1,125% (inactive)
19,CC(C)(CO)Cc1cc(C(C)(C)C)c(O)c(C(C)(C)C)c1,105% (inactive)
20,CCC1(C2=NCCN2)Cc2ccccc2O1 (centres undefined),68.5% (inactive)
21,NC(=O)c1ccc(OCC(O)CN2CC=C(c3ccc(F)cc3)CC2)cc1 (centres undefined),79.7% (inactive)
22,C1COC(NC(C2CC2)C2CC2)=N1,100% (inactive)
23,OCc1ccc(-c2nn(Cc3ccccc3)c3ccccc23)o1,78.2% (inactive)
24,CC(C)[C@@]1(NC(=O)[C@@H]2C[C@@H]3c4cccc5[nH]cc(c45)C[C@H]3N(C)C2)O[C@@]2(O)[C@@H]3CCCN3C(=O)[C@H](Cc3ccccc3)N2C1=O,118% (inactive)

row,SMILES,vessel count % control
1,CN1CCC2(CCN3CCc4c(oc5ccccc45)C3C2)N(C)C1=O (centres undefined),87.3% (inactive)
2,CC(COc1ccccc1)N(CCCl)Cc1ccccc1 (centres undefined),139% (inactive)
3,Cc1cccc(C)c1NC(=O)C[N+](C)(C)C,87.6% (inactive)
4,[N-]=[N+]=Nc1ccc(C(=O)CSC[C@H](NC(=O)CC[C@H](N)C(=O)O)C(=O)NCC(=O)O)cc1,91.6% (inactive)
5,CC(=O)N1CCN(c2ccc(OC[C@H]3CO[C@](Cn4ccnc4)(c4ccc(Cl)cc4Cl)O3)cc2)CC1,113% (inactive)
6,CN1C(=O)CC[C@H]1c1cccnc1,110% (inactive)
7,CC(=O)OC(C)C[N+](C)(C)C (centres undefined),85.5% (inactive)
8,CN1CCN(C2=Nc3cc(Cl)ccc3Nc3ccccc32)CC1,98.7% (inactive)
9,O=C1C(c2c(O)[nH]c3ccc(Cl)cc23)=Nc2ccccc21,87.6% (inactive)
10,CN(CCOc1ccc(C[C@H](Nc2ccccc2C(=O)c2ccccc2)C(=O)O)cc1)c1ccccn1,100% (inactive)
11,Cc1[nH]c(=O)c(C#N)cc1-c1ccncc1,84.9% (inactive)
12,CC[C@@H](C)[C@H]1O[C@]2(CC[C@@H]1C)C[C@@H]1C[C@@H](C/C=C(\C)[C@@H](O[C@H]3C[C@H](OC)[C@@H](O[C@H]4C[C@H](OC)[C@@H](O)[C@H](C)O4)[C@H](C)O3)[C@@H](C)/C=C/C=C3\CO[C@@H]4[C@H](O)C(C)=C[C@@H](C(=O)O1)[C@]34O)O2,78.7% (inactive)
13,COc1ccc(OC)c(C(O)C(C)N)c1 (centres undefined),94.8% (inactive)
14,CN1C[C@H](CNC(=O)OCc2ccccc2)C[C@@H]2c3cccc4c3c(cn4C)C[C@H]21,111% (inactive)
15,Cc1cc(C(C)(C)C)c(O)c(C)c1CC1=NCCN1,106% (inactive)
16,CCCC[N+]1(C)C2CC(OC(=O)[C@H](CO)c3ccccc3)CC1C1OC12 (some centres undefined),107% (inactive)
17,O=c1c(-c2ccc(O)cc2)coc2cc(O)cc(O)c12,107% (inactive)
18,O=C1NCN(c2ccccc2)C12CCN(CCCC(c1ccc(F)cc1)c1ccc(F)cc1)CC2,84.4% (inactive)
19,C[C@](N)(Cc1ccc(O)cc1)C(=O)O,116% (inactive)
20,CN[C@@H]1C[C@@H](c2ccc(Cl)c(Cl)c2)c2ccccc21,0% (inactive)
21,C#CCN(C)CCCOc1ccc(Cl)cc1Cl,100% (inactive)
22,O=c1[nH]c2ccccc2n1CCCN1CCC(n2c(=O)[nH]c3cc(Cl)ccc32)CC1,83.8% (inactive)
23,C[C@H](N)CN1CCc2ccc(Br)cc21,126% (inactive)
24,COCC(=O)O[C@]1(CCN(C)CCCc2nc3ccccc3[nH]2)CCc2cc(F)ccc2[C@@H]1C(C)C,90.9% (inactive)

row,SMILES,vessel count % control
1,CC1(C)NC(=O)N(c2ccc([N+](=O)[O-])c(C(F)(F)F)c2)C1=O,91.7% (inactive)
2,Cc1ccc(OCC(O)C(C)NC(C)C)c2c1CCC2 (centres undefined),103% (inactive)
3,COC(=O)[C@@H](N)CCCN=C(N)N[N+](=O)[O-],95% (inactive)
4,NS(=O)(=O)c1cc2c(cc1Cl)NCNS2(=O)=O,103% (inactive)
5,Cc1cn([C@H]2C=C[C@@H](CO)O2)c(=O)[nH]c1=O,99.1% (inactive)
6,CC(=O)Nc1nnc(S(N)(=O)=O)s1,78.2% (inactive)
7,NCC(O)C1CCCCCCC1 (centres undefined),95.9% (inactive)
8,CN(C)CC[C@@H](c1ccc(Cl)cc1)c1ccccn1,107% (inactive)
9,N#C/C(=C\c1ccc(O)c(O)c1)C(=O)NCCCNC(=O)/C(C#N)=C/c1ccc(O)c(O)c1,118% (inactive)
10,O=c1ccn([C@@H]2O[C@H](COP(=O)(O)OP(=O)(O)O)[C@@H](O)[C@H]2O)c(=O)[nH]1,140% (inactive)
11,O=C(/C=C/c1ccc(O)c(O)c1)OCCc1ccccc1,0% (inactive)
12,O=C(O)c1cc(=O)c2ccc(Cl)cc2[nH]1,110% (inactive)
13,Cc1nc2c([nH]1)c(=O)n(C)c(=O)n2Cc1ccco1,93.1% (inactive)
14,C[C@@H](N)Cc1cnc[nH]1,97.8% (inactive)
15,CCCN(CCC)C(=O)C(CCC(=O)O)NC(=O)c1ccccc1 (centres undefined),103% (inactive)
16,CC(C)(C)NCC(O)c1cc(O)cc(O)c1 (centres undefined),93.9% (inactive)
17,O=C1C(c2c(O)[nH]c3ccccc23)=Nc2ccc(Br)cc21,108% (inactive)
18,O=C(O)CNC(=O)C(CS)Cc1ccccc1 (centres undefined),117% (inactive)
19,CO/N=C(\C(=O)N[C@@H]1C(=O)N2C(C(=O)O)=C(CSc3nc(=O)c(O)nn3C)CSC12)c1csc(N)n1 (some centres undefined),117% (inactive)
20,c1ccc(-c2ccccn2)nc1,109% (inactive)
21,O=S1(=O)N(CCN2CC=C(c3c[nH]c4cc(F)ccc34)CC2)c2cccc3c2N1CCC3,148% (inactive)
22,CSc1nc(N)c2ncn([C@@H]3O[C@H](COP(=O)(O)OP(=O)(O)O)[C@H](O)C3O)c2n1 (some centres undefined),83.5% (inactive)
